Paper PMC11141402, “Cyclic β^2,3-amino acids improve the serum stability of macrocyclic peptide inhibitors targeting the SARS-CoV-2 main protease” (Bulletin of the Chemical Society of Japan, 2024)
*1 amine or outer side, *2 acyl side, *3 side chain or, on linkers, in order; H or OH if unused. Where a SMILES comes first, the peptide text is derived from it. Bridges are numbered along the chain shown (N, C = ends). [ ]: non-standard residue; d: D form. ACHC(1S,2S) = O=C([C@H]1CCCC[C@@H]1N[*:1])[*:2]; X1 = O=C([C@@H]1CCC[C@@H]1N[*:1])[*:2]

What was measured:
SARS-CoV-2 M^pro [1] = biological target: T1, SARS-CoV-2 M^pro (Severe acute respiratory syndrome coronavirus 2, UniProt P0DTD1); assay: biochemical; format: binding; conditions: for kon: read-out: ka (kinetic association)
T1 construct: also known as 3-chymotrypsin-like cysteine protease (3CL^pro) and nonstructural protein 5 (nsp5)

SARS-CoV-2 M^pro [2] = biological target: T1, SARS-CoV-2 M^pro; assay: biochemical
[3] = Serum stability assay in human serum, LC/MS; format: in vitro ADME; conditions: 37 °C, peptide 10 μM, up to 168 h, mean ± s.d. (n = 3), read-out: t1/2 in serum (converted)
Protocol: A synthetic macrocyclic peptide (10 μM) and a serum-resistant internal standard peptide consisting only of D-amino acids (NH2-PEG5-wstndwstnd-PEG5-CONH2, 5 μM) were mixed and incubated in human serum (Cosmo Bio, 12181201) at 37 °C for up to 168 h.[16] At each time point, 4 μL of the mixture was removed and quenched by adding 12 μL of methanol, followed by incubation on ice for 15 min. Following centrifugation (15,000 × g, 25 °C, 10 min), 10 μL of the supernatant was mixed with 40 μL of 1% (v/v) TFA in water. Following centrifugation (15,000 × g, 25 °C, 5 min), the supernatant was analyzed using LC/MS employing a reverse-phase column (ACQUITY UPLC BEH C18, 1.7 μm, 2.1 × 150 mm; Waters) and a Xevo G2-XS QTof system (Waters) with a linear gradient from 1% B to 61% B. Buffer A: water with 0.1% (v/v) formic acid; buffer B: acetonitrile with 0.1% (v/v) formic acid. The percentages of remaining peptides were determined by using the peak area integration of the chromatograms. The obtained LC/MS data were analyzed using a MassLynx 4.1 (Waters).

With CC(C)C[C@@H]1NC(=O)[C@H](CC(N)=O)NC(=O)[C@H](Cc2c[nH]cn2)NC(=O)[C@H](Cc2ccccc2)NC(=O)[C@@H]2CCC[C@@H]2NC(=O)[C@H](Cc2c[nH]cn2)NC(=O)[C@H](Cc2ccccc2)NC(=O)[C@@H](Cc2ccc(O)cc2)NC(=O)CSC[C@H](C(N)=O)NC(=O)[C@H](Cc2c[nH]cn2)NC(=O)[C@H](CC(C)C)NC(=O)[C@H](CCCNC(=N)N)NC(=O)[C@H](Cc2ccccc2)NC1=O [BM5, ^AcyFHβ^1FHNLFRLHc-NH2] ({CH2CO}-[dY]FH[X1]FHNLFRLH[dC]-NH2; thioether N-13) the Kd (SARS-CoV-2 M^pro [1]) was 22 nM, the kon (SARS-CoV-2 M^pro [1]) was 36000 M⁻¹ s⁻¹ and the IC50 (SARS-CoV-2 M^pro [2]) was 360 nM.

In the case of CC(C)C[C@@H]1NC(=O)[C@H](CO)NC(=O)[C@H](CCCNC(=N)N)NC(=O)[C@H](Cc2ccccc2)NC(=O)[C@@H]2CCC[C@@H]2NC(=O)[C@H](Cc2c[nH]cn2)NC(=O)[C@H](Cc2ccccc2)NC(=O)[C@@H](Cc2ccc(O)cc2)NC(=O)CSC[C@H](C(N)=O)NC(=O)CNC(=O)[C@H](Cc2ccccc2)NC(=O)[C@H](C(C)C)NC(=O)[C@H](Cc2ccccc2)NC1=O [BM6, ^AcyFHβ^1FRSLFVFGc-NH2] ({CH2CO}-[dY]FH[X1]FRSLFVFG[dC]-NH2; thioether N-13), the Kd (SARS-CoV-2 M^pro [1]) is reported as 2.9 nM, the kon (SARS-CoV-2 M^pro [1]) is reported as 260000 M⁻¹ s⁻¹ and the IC50 (SARS-CoV-2 M^pro [2]) is reported as 2150 nM.

Compound CC(C)C[C@@H]1NC(=O)[C@H]2CCCC[C@@H]2NC(=O)[C@H](CC(N)=O)NC(=O)[C@H](CC(=O)O)NC(=O)[C@H](Cc2ccc(O)cc2)NC(=O)[C@H](CCCNC(=N)N)NC(=O)[C@H](Cc2c[nH]cn2)NC(=O)[C@H](Cc2ccccc2)NC(=O)[C@@H](Cc2ccc(O)cc2)NC(=O)CSC[C@H](C(N)=O)NC(=O)[C@H](Cc2ccc(O)cc2)NC(=O)[C@H](C(C)C)NC1=O [BM3, ^AcyFHRYDNβ^2LVYc-NH2] ({CH2CO}-[dY]FHRYDN[ACHC(1S,2S)]LVY[dC]-NH2; thioether N-12) has a Kd (SARS-CoV-2 M^pro [1]) of 7.7 nM, a kon (SARS-CoV-2 M^pro [1]) of 810000 M⁻¹ s⁻¹ and an IC50 (SARS-CoV-2 M^pro [2]) of 40 nM. For the same compound, the half-life at 10 μM [3] was 48 h.

In the case of CC(C)C[C@@H]1NC(=O)[C@H](Cc2c[nH]cn2)NC(=O)[C@H](Cc2ccc(O)cc2)NC(=O)[C@@H]2CCC[C@@H]2NC(=O)[C@H](CC(=O)O)NC(=O)[C@H](Cc2ccccc2)NC(=O)[C@@H](Cc2ccc(O)cc2)NC(=O)CSC[C@H](C(N)=O)NC(=O)[C@H](CCCNC(=N)N)NC(=O)[C@@H]2CCC[C@@H]2NC(=O)[C@H](CC(N)=O)NC1=O [BM7, ^AcyFDβ^1YHLNβ^1Rc-NH2] ({CH2CO}-[dY]FD[X1]YHLN[X1]R[dC]-NH2; thioether N-11), the Kd (SARS-CoV-2 M^pro [1]) is reported as 9.6 nM, the kon (SARS-CoV-2 M^pro [1]) is reported as 170000 M⁻¹ s⁻¹ and the IC50 (SARS-CoV-2 M^pro [2]) is reported as 20 nM. The half-life at 10 μM [3] was greater than 168 h.

CC(C)C[C@@H]1NC(=O)[C@H](Cc2c[nH]cn2)NC(=O)[C@H](Cc2ccc(O)cc2)NC(=O)[C@H](C)NC(=O)[C@H](CC(=O)O)NC(=O)[C@H](Cc2ccccc2)NC(=O)[C@@H](Cc2ccc(O)cc2)NC(=O)CSC[C@H](C(N)=O)NC(=O)[C@H](CCCNC(=N)N)NC(=O)[C@H](C)NC(=O)[C@H](CC(N)=O)NC1=O [BM7A, ^AcyFDA YHLNA Rc-NH2] ({CH2CO}-[dY]FDAYHLNAR[dC]-NH2; thioether N-11) showed a Kd (SARS-CoV-2 M^pro [1]) greater than 10000 nM, an IC50 (SARS-CoV-2 M^pro [2]) greater than 25000 nM and a half-life at 10 μM [3] of 4.2 h.

Work on CC(C)C[C@@H]1NC(=O)[C@@H](Cc2ccc(O)cc2)NC(=O)CSC[C@H](C(N)=O)NC(=O)[C@H](Cc2ccccc2)NC(=O)[C@H](Cc2c[nH]cn2)NC(=O)[C@@H]2CCCN2C(=O)[C@H](CC(N)=O)NC(=O)[C@@H]2CCC[C@@H]2NC(=O)[C@H]([C@@H](C)O)NC(=O)[C@H](Cc2c[nH]cn2)NC1=O [BM4, ^AcyLHTβ^1NPHFc-NH2] ({CH2CO}-[dY]LHT[X1]NPHF[dC]-NH2; thioether N-10) yielded a Kd (SARS-CoV-2 M^pro [1]) of 1200 nM, a kon (SARS-CoV-2 M^pro [1]) of 1700 M⁻¹ s⁻¹ and an IC50 (SARS-CoV-2 M^pro [2]) greater than 8000 nM.

With CC(C)C[C@@H]1NC(=O)[C@H](C)NC(=O)[C@H](CC(N)=O)NC(=O)[C@H](CC(=O)O)NC(=O)[C@H](Cc2ccc(O)cc2)NC(=O)[C@H](CCCNC(=N)N)NC(=O)[C@H](Cc2c[nH]cn2)NC(=O)[C@H](Cc2ccccc2)NC(=O)[C@@H](Cc2ccc(O)cc2)NC(=O)CSC[C@H](C(N)=O)NC(=O)[C@H](Cc2ccc(O)cc2)NC(=O)[C@H](C(C)C)NC1=O [BM3A, ^AcyFHRYDNA LVYc-NH2] ({CH2CO}-[dY]FHRYDNALVY[dC]-NH2; thioether N-12) the Kd (SARS-CoV-2 M^pro [1]) was greater than 10000 nM, the IC50 (SARS-CoV-2 M^pro [2]) was greater than 25000 nM and the half-life at 10 μM [3] was 4.6 h.
